Experimental data taken from PubChem BioAssay (NCI).
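Each compound was tested at five concentrations against cells in 96-well plates for 48 hours. The concentration for 50% growth inhibition is given as GI50. TGI is the concentration that stops growth completely.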

Tests used:
Experiment in all cases: DTP human tumour cell line panel, 48 h
SN12C renal = test system: SN12C renal
CCRF-CEM leukemia = test system: CCRF-CEM leukemia
HS 578T breast = test system: HS 578T breast
PC-3 prostate = test system: PC-3 prostate
LOX IMVI melanoma = test system: LOX IMVI melanoma
HCT-116 colon = test system: HCT-116 colon
UACC-62 melanoma = test system: UACC-62 melanoma
HOP-62 NSCLC = test system: HOP-62 NSCLC
HOP-92 NSCLC = test system: HOP-92 NSCLC
TK-10 renal = test system: TK-10 renal
RXF 393 renal = test system: RXF 393 renal
SNB-19 CNS = test system: SNB-19 CNS
NCI/ADR-RES ovarian = test system: NCI/ADR-RES ovarian
RPMI-8226 leukemia = test system: RPMI-8226 leukemia
U251 CNS = test system: U251 CNS
M14 melanoma = test system: M14 melanoma
MDA-MB-435 = test system: MDA-MB-435
A498 renal = test system: A498 renal
OVCAR-5 ovarian = test system: OVCAR-5 ovarian
COLO 205 colon = test system: COLO 205 colon
SR leukemia = test system: SR leukemia
786-0 renal = test system: 786-0 renal
MOLT-4 leukemia = test system: MOLT-4 leukemia
MDA-MB-231 breast = test system: MDA-MB-231 breast
MCF7 breast = test system: MCF7 breast
SK-MEL-28 melanoma = test system: SK-MEL-28 melanoma
T-47D breast = test system: T-47D breast
UO-31 renal = test system: UO-31 renal
OVCAR-3 ovarian = test system: OVCAR-3 ovarian
IGROV1 ovarian = test system: IGROV1 ovarian
KM12 colon = test system: KM12 colon
SK-OV-3 ovarian = test system: SK-OV-3 ovarian
HL-60(TB) leukemia = test system: HL-60(TB) leukemia
UACC-257 melanoma = test system: UACC-257 melanoma
SK-MEL-2 melanoma = test system: SK-MEL-2 melanoma
SF-295 CNS = test system: SF-295 CNS
SF-539 CNS = test system: SF-539 CNS
ACHN renal = test system: ACHN renal
SK-MEL-5 melanoma = test system: SK-MEL-5 melanoma
MALME-3M melanoma = test system: MALME-3M melanoma
NCI-H460 lung = test system: NCI-H460 lung
HCT-15 colon = test system: HCT-15 colon
A549 NSCLC = test system: A549 NSCLC
MDA-MB-468 breast = test system: MDA-MB-468 breast
HT29 colon = test system: HT29 colon
NCI-H522 lung = test system: NCI-H522 lung
K-562 leukemia = test system: K-562 leukemia
NCI-H23 lung = test system: NCI-H23 lung
BT-549 breast = test system: BT-549 breast
SW-620 colon = test system: SW-620 colon
OVCAR-8 ovarian = test system: OVCAR-8 ovarian
CAKI-1 renal = test system: CAKI-1 renal
OVCAR-4 ovarian = test system: OVCAR-4 ovarian
SF-268 CNS = test system: SF-268 CNS
DU-145 prostate = test system: DU-145 prostate
HCC-2998 colon = test system: HCC-2998 colon
NCI-H226 lung = test system: NCI-H226 lung
SNB-75 CNS = test system: SNB-75 CNS
EKVX NSCLC = test system: EKVX NSCLC

SMILES: COc1ccc(NC(=O)N/N=C/c2c[nH]c3ccccc23)cc1
- GI50 (SN12C renal): 1.03 µM
- TGI (SN12C renal): > 56.7 µM
- GI50 (CCRF-CEM leukemia): 0.379 µM
- TGI (CCRF-CEM leukemia): 17.6 µM
- GI50 (HS 578T breast): 1.13 µM
- TGI (HS 578T breast): > 100 µM
- GI50 (PC-3 prostate): 1.65 µM
- TGI (PC-3 prostate): > 100 µM
- GI50 (LOX IMVI melanoma): 0.615 µM
- TGI (LOX IMVI melanoma): > 46.6 µM
- GI50 (HCT-116 colon): 0.389 µM
- TGI (HCT-116 colon): 22.6 µM
- GI50 (UACC-62 melanoma): 0.364 µM
- TGI (UACC-62 melanoma): > 47.3 µM
- GI50 (HOP-62 NSCLC): 0.724 µM
- TGI (HOP-62 NSCLC): > 100 µM
- GI50 (HOP-92 NSCLC): 2.29 µM
- TGI (HOP-92 NSCLC): 38.3 µM
- GI50 (TK-10 renal): 7.83 µM
- TGI (TK-10 renal): 98.2 µM
- GI50 (RXF 393 renal): 1 µM
- TGI (RXF 393 renal): 11.3 µM
- GI50 (SNB-19 CNS): 1.83 µM
- TGI (SNB-19 CNS): > 100 µM
- GI50 (NCI/ADR-RES ovarian): 0.308 µM
- TGI (NCI/ADR-RES ovarian): 1.44 µM
- GI50 (RPMI-8226 leukemia): 1.09 µM
- TGI (RPMI-8226 leukemia): 15.3 µM
- GI50 (U251 CNS): 0.431 µM
- TGI (U251 CNS): > 89.1 µM
- GI50 (M14 melanoma): 0.34 µM
- TGI (M14 melanoma): > 100 µM
- GI50 (MDA-MB-435): 0.255 µM
- TGI (MDA-MB-435): 1.89 µM
- GI50 (A498 renal): > 40.7 µM
- TGI (A498 renal): > 88.3 µM
- GI50 (OVCAR-5 ovarian): 2 µM
- TGI (OVCAR-5 ovarian): > 83.7 µM
- GI50 (COLO 205 colon): 0.586 µM
- TGI (COLO 205 colon): 3.12 µM
- GI50 (SR leukemia): 0.25 µM
- TGI (SR leukemia): > 53.4 µM
- GI50 (786-0 renal): 1.52 µM
- TGI (786-0 renal): 28.1 µM
- GI50 (MOLT-4 leukemia): 0.502 µM
- TGI (MOLT-4 leukemia): 50.7 µM
- GI50 (MDA-MB-231 breast): 1.01 µM
- TGI (MDA-MB-231 breast): 56 µM
- GI50 (MCF7 breast): 0.61 µM
- TGI (MCF7 breast): > 100 µM
- GI50 (SK-MEL-28 melanoma): 3.31 µM
- TGI (SK-MEL-28 melanoma): > 100 µM
- GI50 (T-47D breast): 1.31 µM
- TGI (T-47D breast): > 100 µM
- GI50 (UO-31 renal): 1.87 µM
- TGI (UO-31 renal): > 100 µM
- GI50 (OVCAR-3 ovarian): 0.38 µM
- TGI (OVCAR-3 ovarian): 2.81 µM
- GI50 (IGROV1 ovarian): 0.646 µM
- TGI (IGROV1 ovarian): > 100 µM
- GI50 (KM12 colon): 0.448 µM
- TGI (KM12 colon): > 54.5 µM
- GI50 (SK-OV-3 ovarian): 1.98 µM
- TGI (SK-OV-3 ovarian): > 100 µM
- GI50 (HL-60(TB) leukemia): 0.279 µM
- TGI (HL-60(TB) leukemia): 1.53 µM
- GI50 (UACC-257 melanoma): > 100 µM
- TGI (UACC-257 melanoma): > 100 µM
- GI50 (SK-MEL-2 melanoma): 0.294 µM
- TGI (SK-MEL-2 melanoma): 28.8 µM
- GI50 (SF-295 CNS): 0.458 µM
- TGI (SF-295 CNS): > 32.7 µM
- GI50 (SF-539 CNS): 0.391 µM
- TGI (SF-539 CNS): 2.2 µM
- GI50 (ACHN renal): 1.74 µM
- TGI (ACHN renal): > 100 µM
- GI50 (SK-MEL-5 melanoma): 0.524 µM
- TGI (SK-MEL-5 melanoma): 5.18 µM
- GI50 (MALME-3M melanoma): 0.547 µM
- TGI (MALME-3M melanoma): > 100 µM
- GI50 (NCI-H460 lung): 0.579 µM
- TGI (NCI-H460 lung): 26.3 µM
- GI50 (HCT-15 colon): 0.384 µM
- TGI (HCT-15 colon): > 52.7 µM
- GI50 (A549 NSCLC): 0.815 µM
- TGI (A549 NSCLC): > 100 µM
- GI50 (MDA-MB-468 breast): 0.911 µM
- TGI (MDA-MB-468 breast): 4.4 µM
- GI50 (HT29 colon): 0.357 µM
- TGI (HT29 colon): 5.01 µM
- GI50 (NCI-H522 lung): 0.249 µM
- TGI (NCI-H522 lung): 0.879 µM
- GI50 (K-562 leukemia): 0.235 µM
- TGI (K-562 leukemia): > 77.1 µM
- GI50 (NCI-H23 lung): 2.14 µM
- TGI (NCI-H23 lung): > 51.7 µM
- GI50 (BT-549 breast): 0.67 µM
- TGI (BT-549 breast): > 62.8 µM
- GI50 (SW-620 colon): 0.517 µM
- TGI (SW-620 colon): > 100 µM
- GI50 (OVCAR-8 ovarian): 0.801 µM
- TGI (OVCAR-8 ovarian): 24.6 µM
- GI50 (CAKI-1 renal): 0.678 µM
- TGI (CAKI-1 renal): > 100 µM
- TGI (OVCAR-4 ovarian): > 100 µM
- GI50 (SF-268 CNS): 5.44 µM
- TGI (SF-268 CNS): > 81.4 µM
- GI50 (DU-145 prostate): 2.05 µM
- TGI (DU-145 prostate): > 64.1 µM
- GI50 (HCC-2998 colon): 1.91 µM
- TGI (HCC-2998 colon): 24.1 µM
- GI50 (NCI-H226 lung): 11 µM
- TGI (NCI-H226 lung): > 100 µM
- GI50 (SNB-75 CNS): 1.41 µM
- TGI (SNB-75 CNS): 12.1 µM
- GI50 (EKVX NSCLC): 3.41 µM
- TGI (EKVX NSCLC): > 100 µM
